Where “and” joins values, the source holds several entries; their conditions need not be identical. Identical values can stand only once. Like-named read-outs stand apart in the source and are kept apart here. Bounds are passed on as bounds.

As usually defined, the IC50 is the point on the concentration scale where inhibition reaches its midpoint. One may read the inhibition as the drop in the measured response relative to a control, in per cent.

Common to all, as to format: biochemical
One assay concerns the target p38α (Homo sapiens, UniProt Q16539). The assay is described as follows: Assay for p38 kinase inhibition (p38α).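 Further: radiometric p38 kinase assay, peptide substrate phosphorylation with γ-32P-ATP, 40 min at room temperature, incorporated counts measured by scintillation, inhibition relative to uninhibited kinase activity.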
For a further assay, the target named is p38β (Homo sapiens, UniProt Q15759). The experiment in a line: p38 kinase inhibition assay, p38β. The protocol:
The compounds to be tested were solubilized in DMSO and diluted into water to the desired concentrations. The p38 kinase was diluted to 10 μg/ml into a buffer containing 20 mM MOPS, pH 7.0, 25 mM beta-glycerol phosphate, 2 mg/ml gelatin, 0.5 mM EGTA, and 4 mM DTT.
The reaction was carried out by mixing 20 μl test compound with 10 μl of a substrate cocktail containing 500 μg/ml peptide substrate and 0.2 mM ATP (+200 μCi/ml gamma-32P-ATP) in a 4×assay buffer. The reaction was initiated by the addition of 10 μl of p38 kinase. Final assay conditions were 25 mM MOPS, pH 7.0, 26.25 mM beta-glycerol phosphate, 80 mM KCl, 22 mM MgCl2, 3 mM MgSO4, 1 mg/ml gelatin, 0.625 mM. […] After a 40 minute incubation at room temperature, the reaction was stopped by the addition of 10 μl per reaction of 0.25 M phosphoric acid.
A portion of the reaction was spotted onto a disk of P81 phosphocellulose paper, the filters were dried for 2 minutes and then washed 4× in 75 mM H3PO4. The filters were rinsed briefly in 95% ethanol, dried, then placed in scintillation vials with liquid scintillation cocktail.
Alternatively, the substrate is previously biotinylated and the resulting reactions are spotted on SAM^2TM streptavidin filter squares (Promega). The filters are washed 4× in 2M NaCl, 4× in 2M NaCl with 1% phosphoric acid, 2× in water, and briefly in 95% ethanol. The filter squares are dried and placed in scintillation vials with liquid scintillation cocktail.
(§1) Counts incorporated are determined on a scintillation counter. Relative enzyme activity is calculated by subtracting background counts (counts measured in the absence of enzyme) from each result, and comparing the resulting counts to those obtained in the absence of inhibitor. IC50 values were determined with curve-fitting plots available with common software packages. Approximate IC50 values were calculated using formula
(§2) where A=fractional activity and i=total inhibitor concentration.
Activity with regard to p38β was also tested for compounds of the invention to determine the influence of the position of the piperidinyl or piperazinyl substituent. The influence of substitution on the benzyl moiety attached to the 4-position of the piperazine or piperidine was also tested.

The target of another assay is cdc2 (Homo sapiens, UniProt P06493). The experiment in a line: Kinase specificity, cdc2. The conditions noted are these: approximate IC50; tested at 50 μM, calculated using the formula in Example 22. The method, then: as §1, §2
Sequence of cdc2 (P06493 whole entry, species assumed): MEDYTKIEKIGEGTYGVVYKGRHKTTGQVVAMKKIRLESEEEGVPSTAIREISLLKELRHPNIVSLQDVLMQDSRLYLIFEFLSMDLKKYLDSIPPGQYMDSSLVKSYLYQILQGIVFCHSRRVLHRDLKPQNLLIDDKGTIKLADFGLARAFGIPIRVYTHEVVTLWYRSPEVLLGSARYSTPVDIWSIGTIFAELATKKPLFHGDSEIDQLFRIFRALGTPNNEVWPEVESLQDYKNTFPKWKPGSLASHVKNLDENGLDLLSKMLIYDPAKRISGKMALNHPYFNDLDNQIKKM
Sequence of cdc2 (P14635 whole entry partner, species assumed): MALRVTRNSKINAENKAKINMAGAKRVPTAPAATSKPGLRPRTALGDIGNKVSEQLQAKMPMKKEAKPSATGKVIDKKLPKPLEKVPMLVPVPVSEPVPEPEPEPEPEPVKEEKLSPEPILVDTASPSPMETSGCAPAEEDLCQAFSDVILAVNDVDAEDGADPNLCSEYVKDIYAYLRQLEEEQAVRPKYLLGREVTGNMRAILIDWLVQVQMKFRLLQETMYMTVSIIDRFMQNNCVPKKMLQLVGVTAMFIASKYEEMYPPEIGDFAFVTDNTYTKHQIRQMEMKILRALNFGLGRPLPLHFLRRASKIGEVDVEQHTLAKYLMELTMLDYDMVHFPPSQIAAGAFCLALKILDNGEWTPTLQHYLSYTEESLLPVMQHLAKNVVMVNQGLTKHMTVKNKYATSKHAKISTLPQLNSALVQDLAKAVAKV
(§3) The specificity of the compounds of the invention was also tested with respect to other kinases, including p38-γ, ERK-2, PKA, PKC, cdc-2, EGF-R, and DNA-PK as shown in Table 4. The compounds tested are the 4-benzylpiperidinyl indole-5- and 6-carboximides with the number indicating the ring position of the carboxamide.
(§4) The exception is for p38α values where the IC50 values were determined from concentration dependent curve fitting analysis.

A further assay concerns the target T1, p38-γ (Homo sapiens, UniProt P53778).
T1 sequence (P53778 1-367): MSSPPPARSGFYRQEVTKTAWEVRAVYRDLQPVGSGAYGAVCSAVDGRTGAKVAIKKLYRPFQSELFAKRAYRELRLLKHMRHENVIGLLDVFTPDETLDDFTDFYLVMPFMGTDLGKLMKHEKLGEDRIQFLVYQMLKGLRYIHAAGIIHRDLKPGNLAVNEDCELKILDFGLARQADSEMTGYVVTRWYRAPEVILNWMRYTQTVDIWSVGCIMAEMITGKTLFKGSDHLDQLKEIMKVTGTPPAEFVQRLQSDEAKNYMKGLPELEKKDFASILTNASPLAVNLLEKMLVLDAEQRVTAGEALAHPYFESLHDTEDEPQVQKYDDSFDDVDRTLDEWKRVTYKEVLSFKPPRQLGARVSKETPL
The assay is described as follows: Kinase specificity, p38-γ. The conditions noted are these: approximate IC50; tested at 50 μM, calculated using the formula in Example 22. The protocol: as §1, §2, §3, §4

For a further assay, the target named is DNA-PK (Homo sapiens, UniProt P78527). The experiment in a line: Kinase specificity, DNA-PK. As to conditions: approximate IC50; tested at 50 μM, calculated using the formula in Example 22. The method, then:
as §1, §2, §3, §4

The target in the next assay is PKC. The experiment in a line: Kinase specificity, PKC. The conditions noted are these: approximate IC50; tested at 50 μM, calculated using the formula in Example 22. The protocol:
as §1, §2, §3, §4

In another assay the target is EGF-R (Homo sapiens, UniProt P00533). The experiment in a line: Kinase specificity, EGF-R. As to conditions: approximate IC50; tested at 50 μM, calculated using the formula in Example 22. The protocol:
as §1, §2, §3, §4

Another assay has as its target PKA (Homo sapiens, UniProt P17612). The experiment in a line: Kinase specificity, PKA. As to conditions: approximate IC50; tested at 50 μM, calculated using the formula in Example 22. The protocol:
as §1, §2, §3, §4

The next assay concerns the target ERK-2 (Homo sapiens, UniProt P28482). The assay is described as follows: Kinase specificity, ERK-2. The conditions noted are these: approximate IC50; tested at 50 μM, calculated using the formula in Example 22. The method, then:
as §1, §2, §3, §4

The mark [1] stands for this setting: Table 5, read-out: IC50, inhibition of p38α.
Where [2] appears, read: at 50 μM concentration of the compound, Table 3.
[3] abbreviates: Table 1, by ring position of the piperidinyl or piperazinyl substituent on indole, read-out: IC50 for inhibition of p38α.
Setting [4] is: at 50 μM concentration of the compound, Table 3, read-out: percent inhibition of p38β activity.

Sequence of p38α (Q16539 whole entry): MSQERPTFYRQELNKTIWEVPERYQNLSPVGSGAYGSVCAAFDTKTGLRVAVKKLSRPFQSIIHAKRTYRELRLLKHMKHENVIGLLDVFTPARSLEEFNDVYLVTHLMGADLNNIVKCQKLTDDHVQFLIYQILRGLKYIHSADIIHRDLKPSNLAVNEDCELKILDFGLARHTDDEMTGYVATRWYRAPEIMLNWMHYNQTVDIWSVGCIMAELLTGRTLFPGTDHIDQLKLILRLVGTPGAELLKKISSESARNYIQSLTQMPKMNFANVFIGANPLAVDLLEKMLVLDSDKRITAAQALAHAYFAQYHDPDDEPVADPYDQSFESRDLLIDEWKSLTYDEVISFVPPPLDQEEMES
Sequence of p38β (Q15759 whole entry): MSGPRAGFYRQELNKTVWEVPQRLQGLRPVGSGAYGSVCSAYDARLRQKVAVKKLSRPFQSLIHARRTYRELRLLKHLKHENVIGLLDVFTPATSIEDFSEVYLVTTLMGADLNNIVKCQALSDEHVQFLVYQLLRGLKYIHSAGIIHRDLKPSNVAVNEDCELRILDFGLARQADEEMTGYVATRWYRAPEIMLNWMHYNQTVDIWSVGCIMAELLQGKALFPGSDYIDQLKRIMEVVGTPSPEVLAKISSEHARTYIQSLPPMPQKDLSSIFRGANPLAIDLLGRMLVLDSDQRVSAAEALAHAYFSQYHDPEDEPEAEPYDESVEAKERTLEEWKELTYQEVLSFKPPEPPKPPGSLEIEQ
Sequence of EGF-R (P00533 25-1210, species assumed): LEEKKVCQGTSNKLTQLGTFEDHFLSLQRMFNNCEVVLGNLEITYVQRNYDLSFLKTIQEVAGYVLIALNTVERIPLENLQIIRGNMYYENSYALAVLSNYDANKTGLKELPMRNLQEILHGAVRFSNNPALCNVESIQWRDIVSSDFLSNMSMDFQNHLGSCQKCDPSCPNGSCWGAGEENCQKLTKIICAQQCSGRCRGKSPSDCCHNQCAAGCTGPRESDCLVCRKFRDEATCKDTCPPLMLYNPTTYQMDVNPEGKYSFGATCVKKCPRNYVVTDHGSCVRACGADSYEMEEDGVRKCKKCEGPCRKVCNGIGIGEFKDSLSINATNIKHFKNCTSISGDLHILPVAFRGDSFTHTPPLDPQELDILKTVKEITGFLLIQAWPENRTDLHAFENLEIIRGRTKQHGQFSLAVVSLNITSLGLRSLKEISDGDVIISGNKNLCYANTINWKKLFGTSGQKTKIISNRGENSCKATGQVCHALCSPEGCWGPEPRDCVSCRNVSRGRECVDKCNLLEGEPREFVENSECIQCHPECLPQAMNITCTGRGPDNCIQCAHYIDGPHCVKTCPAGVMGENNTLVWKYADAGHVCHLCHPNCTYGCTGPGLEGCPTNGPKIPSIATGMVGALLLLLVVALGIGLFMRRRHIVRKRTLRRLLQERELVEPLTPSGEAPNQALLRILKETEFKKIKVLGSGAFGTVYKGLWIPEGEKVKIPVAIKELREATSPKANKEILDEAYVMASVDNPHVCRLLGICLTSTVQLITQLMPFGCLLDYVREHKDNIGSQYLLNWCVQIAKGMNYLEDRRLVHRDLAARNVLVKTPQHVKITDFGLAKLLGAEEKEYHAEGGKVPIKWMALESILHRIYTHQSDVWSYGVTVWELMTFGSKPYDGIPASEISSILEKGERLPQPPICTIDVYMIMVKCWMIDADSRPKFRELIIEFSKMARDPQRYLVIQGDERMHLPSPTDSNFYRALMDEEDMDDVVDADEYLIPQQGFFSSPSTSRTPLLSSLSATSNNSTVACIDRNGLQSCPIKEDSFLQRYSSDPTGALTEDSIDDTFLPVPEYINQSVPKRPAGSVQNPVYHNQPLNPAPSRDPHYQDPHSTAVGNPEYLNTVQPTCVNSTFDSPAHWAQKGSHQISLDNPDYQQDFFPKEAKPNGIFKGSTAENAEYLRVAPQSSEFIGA
Sequence of ERK-2 (P28482 whole entry, species assumed): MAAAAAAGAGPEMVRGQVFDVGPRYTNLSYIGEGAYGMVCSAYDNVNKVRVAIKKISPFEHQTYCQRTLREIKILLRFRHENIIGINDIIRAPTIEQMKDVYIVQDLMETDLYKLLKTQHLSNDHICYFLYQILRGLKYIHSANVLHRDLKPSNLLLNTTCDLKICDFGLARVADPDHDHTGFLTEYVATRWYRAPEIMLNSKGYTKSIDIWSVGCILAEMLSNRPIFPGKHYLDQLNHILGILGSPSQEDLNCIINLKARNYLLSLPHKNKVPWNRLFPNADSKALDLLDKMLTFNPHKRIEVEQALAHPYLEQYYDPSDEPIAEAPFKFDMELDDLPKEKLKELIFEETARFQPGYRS

As for `O=C(c1ccc2[nH]cc(CN3CCOCC3)c2c1)N1CCC(Cc2ccccc2)CC1`, the IC50 at p38α (setting [1]) turned out to be 6.57 µM. In the case of `CC(=O)N1CCC(Cc2ccc(F)cc2)C1` (stereo not shown), the inhibition at 1 µM against p38α (at 1 μM) turned out to be 51%.

For the molecule `Cc1cc2c(Cl)c(C(=O)N3CCC(Cc4ccccc4)CC3)ccc2[nH]1`, on p38α (setting [1]), the IC50 came out at 0.489 µM. At p38α (at 0.2 μM), this molecule showed an inhibition at 0.2 µM of 43%. Take `O=C(c1ccc2[nH]cnc2c1)N1CCC(Cc2ccc(F)cc2)CC1`: at p38α (setting [1]), the IC50 was determined as 0.39 µM. Regarding “4-(4-Chlorobenzyl)piperazinyl-indole-5-carboxamide [Piperazinyl 5 4-Cl]”, the “percent inhibition of p38β activity” value at p38β (setting [2]) was determined as 77%.

`CCN(CC)CCn1ccc2cc(C(=O)N3CCC(Cc4ccc(F)cc4)CC3)ccc21` [1-(Diethylamino)-ethyl-(4′-fluoro-4-benzylpiperidinyl)-indole-5-carboxamide]: the 50% inhibitory concentration (IC50) on p38α (setting [1]) came out at 0.354 µM. Still for that read-out and setting: the result for `CCN(CC)CCCn1ccc2cc(C(=O)N3CCC(Cc4ccccc4)CC3)c(Cl)cc21` [1-(Diethylamino)-n-propyl-6-chloro-(4-benzylpiperidinyl)-indole-5-carboxamide] reads 0.199 µM; that for `CCN(CC)CCCn1ccc2cc(C(=O)N3CCC(Cc4ccccc4)CC3)ccc21` [1-(Diethylamino)n-propyl-(4-benzylpiperidinyl)-indole-5-carboxamide], 0.474 µM.

On to `CCN(CC)CCn1ccc2cc(C(=O)N3CCC(Cc4ccccc4)CC3)c(OC)cc21` [1-(Diethylaminoethyl)-6-methoxy-(4-benzylpiperidinyl)-indole-5-carboxamide], for which the half-inhibitory concentration (IC50) at p38α (setting [1]) worked out at 0.184 µM.

With `O=C(c1ccc2c(C(=O)C(F)(F)F)c[nH]c2c1)N1CCC(Cc2ccccc2)CC1` [3-trifluoroacetyl-(4-benzylpiperidinyl)indole-6-carboxamide], at p38α (at 1 μM), the “inhibition of p38α” value stood at 41%. For the molecule `NC(=O)c1ccc2nc(N3CCN(Cc4cccc(Cl)c4)CC3)[nH]c2c1` [4-(3-chlorobenzyl)-piperazinyl-benzimidazole-5-carboxamide], the “inhibition of p38β” value on p38β (compounds tested at 50 μM) worked out at 66%. Turning to `O=C(c1ccc2[nH]cnc2c1)N1CCC(Cc2ccccc2)CC1` [4-Benzyl-piperidinyl-benzimidazole-5-carboxamide], the IC50 at p38α (setting [1]) came out at 0.635 µM. For the same molecule, the inhibition at 50 µM at p38β (compounds tested at 50 μM, read-out: inhibition of p38β) came to 85%. In the case of `COc1cc2[nH]cc(C(=O)NCCN(C)C)c2cc1C(=O)N1CCC(Cc2ccccc2)CC1` [6-methoxy-3-(2-dimethylaminoethylamino)carboxamidyl-(4-benzylpiperidinyl)indole-5-carboxamide], on p38α (setting [1]), the 50% inhibitory concentration (IC50) was found to be 0.0646 µM. Still for that read-out and setting: the result for `COc1cc2[nH]ccc2cc1C(=O)N1CCC(Cc2ccc(F)cc2)CC1` [6-methoxy-(4-(4fluorobenzyl)piperidinyl)indole-5-carboxamide] reads 0.159 µM. Consider `O=C(c1cc2ccccc2[nH]1)N1CCN(Cc2ccccc2)CC1` [Piperazinyl 2], for which the IC50 at p38α (setting [3]) is above 30 µM. The inhibition at 50 µM on p38β (setting [4]) stood at 27%. On the same counts, the results for `O=C(c1c[nH]c2ccccc12)N1CCN(Cc2ccccc2)CC1` [Piperazinyl 3] are 5.44 µM and 77%. `O=C(c1cccc2[nH]ccc12)N1CCN(Cc2ccccc2)CC1` [Piperazinyl 4]: at p38β (setting [4]), the inhibition at 50 µM was 68%. As for `O=C(c1ccc2[nH]ccc2c1)N1CCN(Cc2ccccc2)CC1` [Piperazinyl 5], the inhibition at 50 µM at p38β (setting [4]) came to 59%. For the molecule `O=C(c1ccc2cc[nH]c2c1)N1CCN(Cc2ccccc2)CC1` [Piperazinyl 6], on p38α (setting [3]), the half-maximal inhibitory concentration (IC50) stood at 4.97 µM. Also, the inhibition at 50 µM at p38β (setting [4]) turned out to be 56%. Consider `O=C(c1cccc2cc[nH]c12)N1CCN(Cc2ccccc2)CC1` [Piperazinyl 7], for which the inhibition at 50 µM on p38β (setting [4]) came out at 7%. In the case of `O=C(c1cc2ccccc2[nH]1)N1CCC(Cc2ccccc2)CC1` [Piperidinyl 2], on p38α (setting [3]), the IC50 worked out at 3.26 µM. The inhibition at 50 µM on p38β (setting [4]) turned out to be 12%. For the molecule `O=C(c1c[nH]c2ccccc12)N1CCC(Cc2ccccc2)CC1` [Piperidinyl 3], on p38α (setting [3]), the IC50 was 0.2 µM. Further, on p38β (setting [4]), the inhibition at 50 µM was found to be 96%.

In the case of `O=C(c1cccc2[nH]ccc12)N1CCC(Cc2ccccc2)CC1` [Piperidinyl 4], on p38α (setting [3]), the IC50 worked out at 0.2 µM. Moreover, on p38β (setting [4]), the inhibition at 50 µM was 96%. Regarding `O=C(c1ccc2[nH]ccc2c1)N1CCC(Cc2ccccc2)CC1` [Piperidinyl 5, 4-Benzylpiperidinyl-indole-5-carboxamide], the IC50 at p38α (setting [3]) is 0.242 µM; at p38α (setting [1]) it was 0.523 µM and 0.577 µM. On p38β (setting [4]), the inhibition at 50 µM worked out at 96%.

For `O=C(c1ccc2cc[nH]c2c1)N1CCC(Cc2ccccc2)CC1` [Piperidinyl 6, 4-benzylpiperidinyl-indole-6-carboxamide], the IC50 was above 500 µM at cdc2; above 300 µM on p38-γ; 450 µM at DNA-PK; above 500 µM at PKC; above 500 µM on EGF-R; above 500 µM on PKA. For the same molecule, at ERK-2, the IC50 is above 300 µM. Besides, the “percent inhibition of p38β activity” value on p38β (setting [2]) came to 92%. Take `O=C(c1cccc2cc[nH]c12)N1CCC(Cc2ccccc2)CC1` [Piperidinyl 7]: on p38α (setting [3]), the IC50 was above 30 µM. For the same molecule, on p38β (setting [4]), the inhibition at 50 µM came to 45%.

As for `O=C(c1ccc2c(ccn2C(=O)c2ccncc2)c1)N1CCC(Cc2ccccc2)CC1` [drawing 82], the half-inhibitory concentration (IC50) at p38α (setting [1]) worked out at 0.871 µM.

Regarding `O=C(c1ccc2c(ccn2C(=O)c2ccncc2)c1)N1CCC(Cc2ccccc2)CC1` [drawing 83], the IC50 on p38α (setting [1]) came out at 0.405 µM.

These data come from US6589954B1, “Compounds and methods to treat cardiac failure and other disorders” (Scios, Inc., priority 1998, dated 2003).
